Source: ChEMBL document CHEMBL4765351, “Photoeradication of bacteria with porphycenes: Substituent effects on the efficiency” (Eur J Med Chem, 2020)
One block for each compound: values may come before it. The source made the active and inactive calls. The calls are words filed in the database; no cut-off is given here.

Assays:
[1] = Induction of singlet oxygen generation in toluene solution assessed as singlet oxygen quantum yield irradiated with 369 nanometer LED light at 300 mW by spectrometric method; format: functional
Enterococcus faecalis [2] = test: Photodynamic antibacterial activity against Enterococcus faecalis 29212 assessed as bacterial eradication by measuring log reduction at 7 uM preincubated for 30 mins in dark condition followed by 0.6 J/cm2.min LED light irradiation for 120 mins; format: functional
[3] = Absorption property in pluronic/PBS solution assessed as diode array corresponding wavelength of photodynamic inactivation by measuring electronic absorption spectra by spectrophotometry; format: physicochemical; conditions: buffer
[4] = Induction of hydroxy radical generation in pluronic solution irradiated with 635 nanometer LED light at 6 mW by HPF fluorescence method
HeLa = test: Photodynamic anticancer activity against human HeLa cells; format: functional, cell-based
[5] = Induction of […] generation in pluronic solution irradiated with 369 nanometer LED light at 6 mW by HPF fluorescence method
[6] = Induction of singlet oxygen generation in pluronic solution in deuterated water assessed as singlet oxygen quantum yield irradiated with 635 nanometer LED light at 300 mW by spectrometric method; format: functional
Enterococcus faecalis [7] = test: Photodynamic antibacterial activity against Enterococcus faecalis 29212 assessed as bacterial eradication at 7 uM preincubated for 30 mins in dark condition followed by 72 J/cm2 LED light irradiation; format: functional
Enterococcus faecalis [8] = test: Photodynamic antibacterial activity against Enterococcus faecalis 29212 assessed as bacterial eradication at 7 uM preincubated for 30 mins in dark condition followed by 0.6 J/cm2.min LED light irradiation for 50 mins; format: functional, ATCC 29212; conditions: time 80 min, 1.333 h
Enterococcus faecalis [9] = test: Photodynamic antibacterial activity against Enterococcus faecalis 29212 assessed as bacterial eradication at 7 uM preincubated for 30 mins in dark condition followed by 30 J/cm2 LED light irradiation; format: functional, ATCC 29212; conditions: 0.5 h

Compound: CC(C)(C)C1=Cc2nc1ccc1[nH]c(cc1C(C)(C)C)c1nc(ccc3[nH]c2cc3C(C)(C)C)C(C(C)(C)C)=C1
Activity [1]: 0.38 | Activity (Enterococcus faecalis [2]; ATCC 29212, time 150.0 min): inactive | Activity [3]: Active | Activity [4]: Active | Activity (HeLa): inactive | Activity [5]: Active | Activity [6]: 0.21 | Activity (Enterococcus faecalis [7]; ATCC 29212): inactive

Compound: COCCC1=Cc2nc1ccc1[nH]c(cc1CCOC)c1nc(ccc3[nH]c2cc3CCOC)C(CCOC)=C1
Activity [1]: 0.32 | Activity (Enterococcus faecalis [2]; time 150 min, 2.5 h): 6 | Activity [3]: Active | Activity [4]: Active | Activity (HeLa): Active | Activity [5]: Active | Activity [6]: 0.23 | Activity (Enterococcus faecalis [7]; 0.5 h): 100%

Compound: C1=Cc2nc1ccc1ccc([nH]1)c1nc(ccc3ccc2[nH]3)C=C1
Activity [1]: 0.3 | Activity [3]: Active | Activity (Enterococcus faecalis [8]): 100% | Activity [4]: Active | Activity (HeLa): Active | Activity [5]: Active | Activity [6]: 0.28 | Activity (Enterococcus faecalis [9]): 100%

Now from value to compound, other results behind:

Activity [3]: Active
Compound: CC(C)(C)C1=Cc2nc1ccc1ccc([nH]1)c1nc(ccc3[nH]c2cc3C(C)(C)C)C=C1
Activity [1]: 0.36 | Activity (Enterococcus faecalis [2]; ATCC 29212, time 150.0 min): inactive | Activity [4]: Active | Activity [5]: Active | Activity [6]: 0.22 | Activity (Enterococcus faecalis [7]; ATCC 29212): inactive

Activity [3]: Active
Compound: CC(C)(C)c1cc2[nH]c1ccc1nc(c3ccc(ccc4nc2C=C4)[nH]3)C=C1
Activity [1]: 0.32 | Activity (Enterococcus faecalis [2]; time 150 min, 2.5 h): 3 | Activity [4]: Active | Activity [5]: Active | Activity [6]: 0.23 | Activity (Enterococcus faecalis [7]; ATCC 29212): inactive
